The source of these data is patent US20190225650A1, “PEPTIDOMIMETIC MACROCYCLES AND USE THEREOF IN REGULATING HIF1ALPHA” (AILERON THERAPEUTICS, INC., priority 2013, published 2019).

Bridge positions count the residues as written; N and C are the ends. Square brackets hold non-standard residues; d marks the D form. Peptide text beside a SMILES is read from it. S5 = C=CCCC[C@](C)(N)C(=O)O; Nle = CCCC[C@H](N)C(=O)O; Dap = NC[C@H](N)C(=O)O

This assay deals with HRE-bla ME-180 cells. The assay is described as follows: Reporter gene assay (HRE-bla ME-180 HIF reporter, GeneBLAzer). The class given is cell-based, human. The conditions noted are these: for EC50: 24 hour normoxia. As to the method: The following reagents were used:
• DMEM+GutaMAX: (#10569044, Invitrogen) • Black clear bottom plates: (#3603, Costar) • HRE-bla-ME-180 cell line: (#K1644, Invitrogen) • Gene-Blazer reagent & protocol: (#K1096, Invitrogen) • Plate reader: Biotek Synergy 2 • Chetomin: (C9623, Sigma)
4 hours prior to experiment: HRE-bla ME-180 cells were seeded at a density of 20,000 cells/well in a volume of 180 μl in black clear bottom 96-well plates. 180 μl of assay medium was added to the cell-free control wells. Incubation was conducted at 37° C., 5% CO2 for 4 hours.
Diluted chetomin was used as a positive control. Chetomin was diluted in 100% DMSO to a 10 mM stock concentration. A 1 mM stock of chetomin was prepared in 100% DMSO. Then the 1 mM chetomin stock was serially diluted in 1:4 in 100% DMSO. Finally, 50, 12.5, 3.125, 0.78, 0.2, 0.05 μM stock of chetomin in 5% DMSO/water were prepared by adding 114 μL water+6 μL chetomin in DMSO.
Test peptides were diluted before use. The test peptides were diluted in 100% DMSO to a 10 mM stock concentration. Then each 10 mM peptide stock was diluted in 1:3 in 100% DMSO. Finally, 300, 100, 33.3, 11.1, 3.7, 1.2 μM stock of each peptide in 5% DMSO/water were prepared by adding 129.2 μL water+4 μL peptide in DMSO.
20 μl of peptide, chetomin dilution, or DMSO/water control were added to the appropriate wells of a plate to achieve 200 μL final volumes in 0.3% DMSO/media. The plate was first incubated for 18-20 hours in normoxia incubator (37° C. in humidified 5% CO2, 20% O2 atmosphere). Then the plate was transferred to hypoxia incubator for 24 hours (37° C. in humidified 5% CO2, 1% O2 atmosphere)
6× LiveBLAzer™-FRET B/G (CCF4-AM) Substrate Mixture was prepared according to CellSensor™ HRE-bla ME-180 Cell-based Assay Protocol (Invitrogen) and added into each well. Solution A (CCF4-AM) was reconstituted in DMSO to a working concentration of 1 mM, divided in aliquots, and stored at −20° C. The 6× LiveBLAzer-FRET B/G (CCF4-AM) Substrate mixture was prepared by mixing 6 μl of Solution A, 60 μl of Solution B, and 934 μl Solution C.
The plates were removed from incubator and equilibrated to RT for a few minutes. Then 20 μl of 6× Substrate mixture was added to each well. The plates were then incubated at room temperature for 3 hr in the dark and read at 409 Ex/460Em and 409Ex/530Em using the “GeneBlazer-Tungsten with export” program on the Synergy 2.
The average percentage of maximum inhibition was obtained by comparing the peptide treated cells (30 μM) to DMSO vehicle control treated cells. The results are shown in the columns “ME-180 HIF Reporter EC50 (μM) −24 hr normoxia” and “18 h Avg % max inhibition at top conc (HIF Rptr-24 hrsnormoxia) (μM)” of Table 6.
Background: In a reporter assay the amount or activity of a reporter protein is the signal.

Broadly, the EC50 is the concentration that produces a half-maximal response.

In the case of `CCCC[C@H](NC(=O)[C@H](CC(C)C)NC(=O)[C@@H](NC(=O)[C@H](CCC(=O)O)NC(=O)[C@H](CCC(=O)O)NC(=O)[C@H](CC(=O)O)NC(=O)[C@@H](NC(=O)[C@H](Cc1ccccc1)NC(C)=O)[C@@H](C)CC)C(C)C)C(=O)N[C@@]1(C)CCCC=CCCC[C@@](C)(C(=O)N[C@@H](CCCC)C(=O)N[C@@H](C)C(=O)N[C@@H](CC(C)C)C(=O)N[C@@H](CC(=O)O)C(=O)N[C@@H](CCCNC(=N)N)C(=O)N[C@H](C(N)=O)[C@@H](C)CC)NC(=O)[C@H]([C@@H](C)CC)NC(=O)[C@H](C(C)C)NC(=O)[C@H](C)NC1=O` [SP-17] (Ac-FIDEEVL[Nle][S5]AVI[S5][Nle]ALDRI-NH2; staple 9-13), the “18 h Avg % max inhibition at top conc (HIF Rptr-24 hrs normoxia) (μM)” value (“18 h Avg % max inhibition at top conc” below) is listed as “++++ (≥50: ++++)” and the EC50 was in the range of 5 to 15 µM.
As to `CCCC[C@H](NC(=O)[C@H](CC(C)C)NC(=O)[C@@H](NC(=O)[C@H](CCC(=O)O)NC(=O)[C@H](CCC(=O)O)NC(=O)[C@H](CC(=O)O)NC(=O)[C@@H](NC(=O)[C@H](Cc1ccccc1)NC(C)=O)[C@@H](C)CC)C(C)C)C(=O)N[C@@]1(C)CCCC=CCCC[C@@](C)(C(=O)N[C@@H](CCCC)C(=O)N[C@@H](C)C(=O)N[C@@H](CC(C)C)C(=O)N[C@@H](CC(=O)O)C(=O)N[C@@H](CO)C(=O)N[C@H](C(N)=O)[C@@H](C)CC)NC(=O)[C@H]([C@@H](C)CC)NC(=O)[C@H](C(C)C)NC(=O)[C@H](CC(C)C)NC1=O` [SP-58] (Ac-FIDEEVL[Nle][S5]LVI[S5][Nle]ALDSI-NH2; staple 9-13), the “18 h Avg % max inhibition at top conc” value was “+++ (≤25 but <50: +++)” and the EC50 is over 30 µM.
For `CCCC[C@H](NC(=O)[C@H](CC(C)C)NC(=O)[C@@H](NC(=O)[C@H](CCC(=O)O)NC(=O)[C@H](CCC(=O)O)NC(=O)[C@H](CC(=O)O)NC(=O)[C@@H](NC(=O)[C@H](C)NC(C)=O)[C@@H](C)CC)C(C)C)C(=O)N[C@@]1(C)CCCC=CCCC[C@@](C)(C(=O)N[C@@H](CCCC)C(=O)N[C@@H](C)C(=O)N[C@@H](CC(C)C)C(=O)N[C@@H](CC(=O)O)C(=O)N[C@@H](CCCNC(=N)N)C(=O)N[C@H](C(N)=O)[C@@H](C)CC)NC(=O)[C@H]([C@@H](C)CC)NC(=O)[C@H](C(C)C)NC(=O)[C@H](CC(C)C)NC1=O` [SP-9] (Ac-AIDEEVL[Nle][S5]LVI[S5][Nle]ALDRI-NH2; staple 9-13), the “18 h Avg % max inhibition at top conc” value is “+++ (≤25 but <50: +++)” and the half-maximal effective concentration (EC50) lay in the range of 15 to 30 µM.
For `CC[C@H](C)[C@H](NC(C)=O)C(=O)N[C@@H](CC(=O)O)C(=O)N[C@@H](CCC(=O)O)C(=O)N[C@@H](CCC(=O)O)C(=O)N[C@H](C(=O)N[C@@H](CC(C)C)C(=O)N[C@@H](CCSC)C(=O)N[C@@]1(C)CCCC=CCCC[C@@](C)(C(=O)N[C@@H](CCSC)C(=O)NCC(=O)N[C@@H](CC(C)C)C(=O)N[C@@H](CC(=O)O)C(=O)N[C@@H](CCCNC(=N)N)C(=O)N[C@H](C(=O)N[C@@H](CCCCN)C(=O)N[C@@H](CCC(=O)O)C(=O)N[C@@H](CC(C)C)C(=O)N2CCC[C@H]2C(=O)N[C@@H](CCC(=O)O)C(=O)N[C@@H](CC(C)C)C(=O)N[C@@H](Cc2c[nH]c3ccccc23)C(=O)N[C@@H](CC(C)C)C(N)=O)[C@@H](C)CC)NC(=O)[C@H]([C@@H](C)CC)NC(=O)[C@H](C(C)C)NC(=O)[C@H](CC(C)C)NC1=O)C(C)C` [SP-86] (Ac-IDEEVLM[S5]LVI[S5]MGLDRIKELPELWL-NH2; staple 8-12), in that order: “++++ (≥50: ++++)” and 5 to 15 µM.
The matching figures for `CCCC[C@H](NC(=O)[C@H](CC(C)C)NC(=O)[C@@H](NC(=O)[C@H](CCC(=O)O)NC(=O)[C@H](CCC(=O)O)NC(=O)[C@H](CC(=O)O)NC(=O)[C@@H](NC(=O)[C@H](Cc1ccccc1)NC(C)=O)[C@@H](C)CC)C(C)C)C(=O)N[C@@]1(C)CCCC=CCCC[C@@](C)(C(=O)N[C@@H](CN)C(=O)N[C@@H](C)C(=O)N[C@@H](CC(C)C)C(=O)N[C@@H](CC(=O)O)C(=O)N[C@@H](CCCNC(=N)N)C(=O)N[C@H](C(N)=O)[C@@H](C)CC)NC(=O)[C@H]([C@@H](C)CC)NC(=O)[C@H](C(C)C)NC(=O)[C@H](CC(C)C)NC1=O` [SP-66] (Ac-FIDEEVL[Nle][S5]LVI[S5][Dap]ALDRI-NH2; staple 9-13): “++ (≤10 but <25: ++)” and over 30 µM.
For `CCCC[C@H](NC(=O)[C@H](CC(C)C)NC(=O)[C@@H](NC(=O)[C@H](CCC(N)=O)NC(=O)[C@H](CCC(=O)O)NC(=O)[C@H](CC(=O)O)NC(=O)[C@@H](NC(=O)[C@H](Cc1ccccc1)NC(C)=O)[C@@H](C)CC)C(C)C)C(=O)N[C@@]1(C)CCCC=CCCC[C@@](C)(C(=O)N[C@@H](CCCC)C(=O)N[C@@H](C)C(=O)N[C@@H](CC(C)C)C(=O)N[C@@H](CC(=O)O)C(=O)N[C@@H](CCCNC(=N)N)C(=O)N[C@H](C(N)=O)[C@@H](C)CC)NC(=O)[C@H]([C@@H](C)CC)NC(=O)[C@H](C(C)C)NC(=O)[C@H](CC(C)C)NC1=O` [SP-69] (Ac-FIDEQVL[Nle][S5]LVI[S5][Nle]ALDRI-NH2; staple 9-13), in that order: “++++ (≥50: ++++)” and 5 to 15 µM.
With `CCCC[C@H](NC(=O)[C@H](CC(C)C)NC(=O)[C@H](CC(=O)O)NC(=O)[C@H](CCC(=O)O)NC(=O)[C@H](CCC(=O)O)NC(=O)[C@H](CC(=O)O)NC(=O)[C@@H](NC(=O)[C@H](Cc1ccccc1)NC(C)=O)[C@@H](C)CC)C(=O)N[C@@]1(C)CCCC=CCCC[C@@](C)(C(=O)N[C@@H](CCCC)C(=O)N[C@@H](C)C(=O)N[C@@H](CC(C)C)C(=O)N[C@@H](CC(=O)O)C(=O)N[C@@H](CCCNC(=N)N)C(=O)N[C@H](C(N)=O)[C@@H](C)CC)NC(=O)[C@H]([C@@H](C)CC)NC(=O)[C@H](C(C)C)NC(=O)[C@H](CC(C)C)NC1=O` [SP-32] (Ac-FIDEEDL[Nle][S5]LVI[S5][Nle]ALDRI-NH2; staple 9-13), the “18 h Avg % max inhibition at top conc” value is on record as “+++ (≤25 but <50: +++)” and the EC50 is 15 to 30 µM.
Consider `CCCC[C@H](NC(=O)[C@H](CC(C)C)NC(=O)[C@@H](NC(=O)[C@H](CCC(=O)O)NC(=O)[C@H](CCC(=O)O)NC(=O)[C@H](CC(=O)O)NC(=O)[C@H](CCC(=O)O)NC(=O)[C@H](Cc1ccccc1)NC(C)=O)C(C)C)C(=O)N[C@@]1(C)CCCC=CCCC[C@@](C)(C(=O)N[C@@H](CCCC)C(=O)N[C@@H](C)C(=O)N[C@@H](CC(C)C)C(=O)N[C@@H](CC(=O)O)C(=O)N[C@@H](CCCNC(=N)N)C(=O)N[C@H](C(N)=O)[C@@H](C)CC)NC(=O)[C@H]([C@@H](C)CC)NC(=O)[C@H](C(C)C)NC(=O)[C@H](CC(C)C)NC1=O` [SP-31] (Ac-FEDEEVL[Nle][S5]LVI[S5][Nle]ALDRI-NH2; staple 9-13), for which the “18 h Avg % max inhibition at top conc” value is “+ (<10: +)” and the EC50 was over 30 µM.
The matching figures for `CCCC[C@H](NC(=O)[C@H](CC(C)C)NC(=O)[C@@H](NC(=O)[C@H](CCC(=O)O)NC(=O)[C@H](CCC(=O)O)NC(=O)[C@H](CC(=O)O)NC(=O)[C@@H](NC(=O)[C@H](Cc1ccccc1)NC(C)=O)[C@@H](C)CC)C(C)C)C(=O)N[C@@]1(C)CCCC=CCCC[C@@](C)(C(=O)N[C@@H](CCCC)C(=O)N[C@@H](CO)C(=O)N[C@@H](CC(C)C)C(=O)N[C@@H](CC(=O)O)C(=O)N[C@@H](CCCNC(=N)N)C(=O)N[C@H](C(N)=O)[C@@H](C)CC)NC(=O)[C@H]([C@@H](C)CC)NC(=O)[C@H](C(C)C)NC(=O)[C@H](CC(C)C)NC1=O` [SP-55] (Ac-FIDEEVL[Nle][S5]LVI[S5][Nle]SLDRI-NH2; staple 9-13): “++++ (≥50: ++++)” and 5 to 15 µM.
